Laboratory results taken from ChEMBL document CHEMBL3046894, “Synthesis and Herbicidal Activity of Pyrimidinyl Salicylic and Thiosalicylic Acids” (J Pestic Sci, 1996).
Activity calls are given as the source filed them. The calls are words filed in the database; no cut-off is given here.

Assays:
[1] = Pre-emergence phytotoxicity against Gossypium hirsutum (cotton) assessed as mortality at 6.3 g a.i/10 a; format: organism-based; settings: in vivo, 6.3 g a.i/10 a, read-out: Activity
Gossypium hirsutum [2] = test: Pre-emergence phytotoxicity against Gossypium hirsutum (cotton) assessed as mortality at 1.6 g a.i/10 a; format: organism-based; settings: in vivo, other
Glycine max [3] = test: Pre-emergence phytotoxicity against Glycine max (soybean) assessed as mortality at 1.6 g a.i/10 a; format: organism-based; settings: in vivo, other
Glycine max [4] = test: Pre-emergence phytotoxicity against Glycine max (soybean) assessed as mortality at 6.3 g a.i/10 a; format: organism-based; settings: in vivo, other
Zea mays [5] = test: Pre-emergence phytotoxicity against Zea mays (maize) assessed as mortality at 1.6 g a.i/10 a; format: organism-based; settings: in vivo, other
Zea mays [6] = test: Pre-emergence phytotoxicity against Zea mays (maize) assessed as mortality at 6.3 g a.i/10 a; format: organism-based; settings: in vivo, other
Gossypium hirsutum [7] = test: Post-emergence phytotoxicity against Gossypium hirsutum (cotton) assessed as mortality at 1.6 g a.i/10 a applied 11 days after germination as foliar spray; format: organism-based; settings: in vivo, other, 264 h
Gossypium hirsutum [8] = test: Post-emergence phytotoxicity against Gossypium hirsutum (cotton) assessed as mortality at 6.3 g a.i/10 a applied 11 days after germination as foliar spray; format: organism-based; settings: in vivo, other, 264 h
Glycine max [9] = test: Post-emergence phytotoxicity against Glycine max (soybean) assessed as mortality at 6.3 g a.i/10 a applied 11 days after germination as foliar spray; format: organism-based; settings: in vivo, other, 264 h
Glycine max [10] = test: (§1) Post-emergence phytotoxicity against Glycine max (soybean) assessed as mortality at 1.6 g a.i/10 a applied 11 days after germination as foliar spray; format: organism-based; settings: in vivo, other, 264 h
Zea mays [11] = test: Post-emergence phytotoxicity against Zea mays (maize) assessed as mortality at 1.6 g a.i/10 a applied 11 days after germination as foliar spray; format: organism-based; settings: in vivo, other, 264 h
Zea mays [12] = test: Post-emergence phytotoxicity against Zea mays (maize) assessed as mortality at 6.3 g a.i/10 a applied 11 days after germination as foliar spray; format: organism-based; settings: in vivo, other, 264 h
Xanthium strumarium [13] = test: Pre-emergence herbicidal activity against Xanthium strumarium (cocklebur) assessed as mortality at 1.6 g a.i/10 a; format: functional
Xanthium strumarium [14] = test: Pre-emergence herbicidal activity against Xanthium strumarium (cocklebur) assessed as mortality at 6.3 g a.i/10 a; format: functional
Cyperus iria [15] = test: Pre-emergence herbicidal activity against Cyperus iria assessed as growth inhibition at 25 g a.i/10 a; format: functional, organism-based
Chenopodium album [16] = test: Pre-emergence herbicidal activity against Chenopodium album assessed as growth inhibition at 25 g a.i/10 a; format: functional, organism-based
Amaranthus retroflexus [17] = test: Pre-emergence herbicidal activity against Amaranthus retroflexus assessed as growth inhibition at 25 g a.i/10 a; format: functional, organism-based
Persicaria nodosa [18] = test: Pre-emergence herbicidal activity against Persicaria nodosa assessed as growth inhibition at 25 g a.i/10 a; format: functional, organism-based
Digitaria sanguinalis [19] = test: Pre-emergence herbicidal activity against Digitaria sanguinalis (hairy crabgrass) assessed as growth inhibition at 25 g a.i/10 a; format: functional, organism-based
Echinochloa crus-galli [20] = test: Pre-emergence herbicidal activity against Echinochloa crus-galli (barnyard grass) assessed as growth inhibition at 25 g a.i/10 a; format: functional, organism-based
Cyperus iria [21] = test: Post-emergence herbicidal activity against Cyperus iria assessed as growth inhibition at 25 g a.i/10 a applied 11 days after germination as foliar spray; format: functional, organism-based
Chenopodium album [22] = test: Post-emergence herbicidal activity against Chenopodium album assessed as growth inhibition at 25 g a.i/10 a applied 11 days after germination as foliar spray; format: functional, organism-based
Amaranthus retroflexus [23] = test: Post-emergence herbicidal activity against Amaranthus retroflexus assessed as growth inhibition at 25 g a.i/10 a applied 11 days after germination as foliar spray; format: functional, organism-based
Persicaria nodosa [24] = test: Post-emergence herbicidal activity against Persicaria nodosa assessed as growth inhibition at 25 g a.i/10 a applied 11 days after germination as foliar spray; format: functional, organism-based
Digitaria sanguinalis [25] = test: Post-emergence herbicidal activity against Digitaria sanguinalis (hairy crabgrass) assessed as growth inhibition at 25 g a.i/10 a applied 11 days after germination as foliar spray; format: functional, organism-based
Echinochloa crus-galli [26] = test: Post-emergence herbicidal activity against Echinochloa crus-galli (barnyard grass) assessed as growth inhibition at 25 g a.i/10 a applied 11 days after germination as foliar spray; format: functional, organism-based
Abutilon theophrasti [27] = test: Post-emergence herbicidal activity against Abutilon theophrasti (velvetleaf) assessed as mortality at 1.6 g a.i/10 a applied 11 days after germination as foliar spray; format: functional; settings: 264 h
Abutilon theophrasti [28] = test: Post-emergence herbicidal activity against Abutilon theophrasti (velvetleaf) assessed as mortality at 6.3 g a.i/10 a applied 11 days after germination as foliar spray; format: functional; settings: 264 h
[29] = as §1; format: organism-based; settings: in vivo, 1.6 g a.i/10 a

Row | SMILES | growth inhibition (GI) (Cyperus iria [15]) | growth inhibition (GI) (Chenopodium album [16]) | growth inhibition (GI) (Amaranthus retroflexus [17]) | growth inhibition (GI) (Persicaria nodosa [18]) | growth inhibition (GI) (Digitaria sanguinalis [19]) | growth inhibition (GI) (Echinochloa crus-galli [20]) | growth inhibition (GI) (Cyperus iria [21]) | growth inhibition (GI) (Chenopodium album [22]) | growth inhibition (GI) (Amaranthus retroflexus [23]) | growth inhibition (GI) (Persicaria nodosa [24]) | growth inhibition (GI) (Digitaria sanguinalis [25]) | growth inhibition (GI) (Echinochloa crus-galli [26]) | other results
1 | COc1cc(OC)nc(Sc2cccc([N+](=O)[O-])c2C(=O)O)n1 | – | – | – | – | – | – | – | – | – | – | – | – | mortality [1]: < 50%; Activity (Gossypium hirsutum [2]): < 50%; Activity (Glycine max [3]): Non-toxic; Activity (Glycine max [4]): Toxic; Activity (Zea mays [5]): Non-toxic; Activity (Zea mays [6]): Toxic; Activity (Gossypium hirsutum [7]): Non-toxic; Activity (Gossypium hirsutum [8]): Non-toxic; Activity (Glycine max [9]): Toxic; Activity (Glycine max [10]): Toxic; Activity (Zea mays [11]): Non-toxic; Activity (Zea mays [12]): Non-toxic; Activity (Xanthium strumarium [13]): <50%; Activity (Xanthium strumarium [14]): <50%
2 | CNc1ccc(Oc2nc(OC)cc(OC)n2)c(C(=O)O)c1 | Active | Active | Active | Active | inactive | inactive | Active | Active | Active | Active | Active | Active | –
3 | COc1cc(OC)nc(Cc2cccc(Cl)c2C(=O)O)n1 | Active | Active | Active | Active | Active | Active | Active | Active | Active | Active | Active | Active | –
4 | COc1cc(OC)nc([S+]([O-])c2cccc(Cl)c2C(=O)O)n1 (centres undefined) | Active | Active | Active | inactive | Active | inactive | Active | Active | Active | Active | inactive | Active | –
5 | COc1cc(OC)nc(Oc2cccc(C(=O)c3ccccc3)c2C(=O)O)n1 | Active | Active | Active | inactive | inactive | inactive | Active | Active | Active | Active | inactive | inactive | –
6 | CCCSc1cccc(Oc2nc(OC)cc(OC)n2)c1C(=O)O | inactive | inactive | inactive | inactive | inactive | inactive | inactive | inactive | Active | Active | inactive | inactive | –
7 | CCCCOc1cccc(Oc2nc(OC)cc(OC)n2)c1C(=O)O | Active | Active | Active | inactive | Active | Active | Active | Active | Active | Active | Active | Active | –
8 | COc1cc(OC)nc(Oc2cccc(SC)c2C(=O)O)n1 | inactive | inactive | Active | Active | inactive | inactive | Active | Active | Active | Active | Active | Active | mortality at 16 g/ha (Abutilon theophrasti [27]): > 90%; mortality at 63 g/ha (Abutilon theophrasti [28]): > 90%; Activity (Gossypium hirsutum [7]): Toxic; Activity (Gossypium hirsutum [8]): Toxic; mortality at 264 h [29]: > 90%; Activity (Zea mays [11]): Toxic; Activity (Zea mays [12]): Toxic
9 | COc1ccc(Oc2nc(OC)cc(OC)n2)c(C(=O)O)c1 | Active | Active | Active | Active | Active | Active | Active | inactive | Active | Active | Active | Active | –
10 | CCSc1cccc(Oc2nc(OC)cc(OC)n2)c1C(=O)O | inactive | inactive | Active | inactive | inactive | inactive | Active | Active | Active | Active | inactive | Active | –
